Consider 17 compounds from PubChem BioAssay (NCI).

Several values for one entry are separate records, joined by “and”; a condition that tells them apart may be missing. Equal values may be shown once.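 Each compound was tested at five concentrations against cells in 96-well plates for 48 hours. GI50 marks 50% less growth. Definition used: TGI = concentration required for complete inhibition of growth.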

Test systems include ACHN renal; HCT-116 colon; IGROV1 ovarian; MDA-MB-435; MOLT-4 leukemia; NCI/ADR-RES ovarian; SF-295 CNS; SK-MEL-2 melanoma; SK-MEL-28 melanoma; T-47D breast.
Common to all, as to assay: inhibition of tumour cell growth, NCI panel, 48 h

As for `NS(=O)(=O)c1c(O)c2ccccc2oc1=O`, the TGI in the test with ACHN renal, in the test with HCT-116 colon, with IGROV1 ovarian, in the test on MDA-MB-435, with MOLT-4 leukemia and in the test with NCI/ADR-RES ovarian was more than 100 µM throughout. Further, the TGI in the test on SF-295 CNS, in the test with SK-MEL-2 melanoma, in the test with SK-MEL-28 melanoma and in the test on T-47D breast was more than 100 µM throughout.

With `CC1=C(C(=O)NNC(=O)C[N+](C)(C)C)CC(C(=O)NNC(=O)C[N+](C)(C)C)=C(C)N1`, the TGI with ACHN renal, in the test with HCT-116 colon, in the test on IGROV1 ovarian, with MDA-MB-435, in the test on MOLT-4 leukemia and in the test on NCI/ADR-RES ovarian was more than 100 µM in each case. Further, the TGI in the test with SF-295 CNS, with SK-MEL-2 melanoma and in the test with T-47D breast was more than 100 µM throughout.

`CCOC(=O)c1c(C)n(-c2ccc(C)cc2)c(=O)c2ccccc2c(=O)c2c(=O)ccc(=O)c1=2`: the TGI in the test with ACHN renal is 31.9 µM; in the test with HCT-116 colon, 33.3 µM; in the test on IGROV1 ovarian it was more than 100 µM; with MDA-MB-435 it was 30.2 µM; with MOLT-4 leukemia, 11.4 µM; with NCI/ADR-RES ovarian it was 58.4 µM. Moreover, the TGI with SK-MEL-2 melanoma is 61 µM; with SK-MEL-28 melanoma, 27.1 µM; with T-47D breast it was 72.2 µM.

`C/C=C(/CCC1NCCc2c1[nH]c1ccccc21)[Si](C)(C)C` (stereo unspecified): the TGI in the test on ACHN renal was > 100 µM and 21.5 µM; in the test with IGROV1 ovarian, > 100 µM and 21.1 µM; in the test with SF-295 CNS, > 100 µM and 19.2 µM.

Consider `NC(Cc1cc(I)c(Oc2ccc(O)c(I)c2)c(I)c1)C(=O)O` (stereo unspecified), for which the TGI in the test with ACHN renal, in the test with HCT-116 colon, in the test on IGROV1 ovarian, with MDA-MB-435, in the test on NCI/ADR-RES ovarian and in the test on SF-295 CNS was more than 100 µM each time. Further, the TGI with SK-MEL-2 melanoma was 41 µM; in the test on SK-MEL-28 melanoma, more than 100 µM; in the test on T-47D breast it was more than 100 µM.

As to `Fc1ccc2c(c1)SC1=Nc3sc4cc(F)ccc4[n+]3CN12`, the TGI is 62.2 µM with ACHN renal; more than 100 µM in the test with HCT-116 colon; 30.6 µM in the test with IGROV1 ovarian; more than 100 µM in the test with MDA-MB-435; 63.6 µM in the test with NCI/ADR-RES ovarian; 74 µM in the test with SF-295 CNS. The TGI was 55 µM in the test on SK-MEL-2 melanoma, more than 100 µM in the test with SK-MEL-28 melanoma and 55.4 µM with T-47D breast.

Turning to `NCCCCNOCCCN`, the TGI in the test on ACHN renal, in the test on HCT-116 colon, with IGROV1 ovarian, in the test with MDA-MB-435, with MOLT-4 leukemia and with NCI/ADR-RES ovarian was more than 100 µM throughout. Further, the TGI in the test on SF-295 CNS, in the test with SK-MEL-2 melanoma, with SK-MEL-28 melanoma and in the test with T-47D breast was more than 100 µM throughout.

In the case of `COC(=O)C1=C(O)C(C(=O)OC)[C@@]2(O)[C@@H](C(=O)OC)[C@H](C)C[C@@H]1[C@@H]2C(=O)OC` (stereo partly specified), the TGI in the test on ACHN renal was more than 100 µM; in the test with HCT-116 colon, more than 100 µM; in the test with MDA-MB-435, 32.1 µM; in the test on MOLT-4 leukemia it was more than 100 µM; with SK-MEL-2 melanoma it was 58.9 µM; with SK-MEL-28 melanoma, more than 100 µM. In the test on T-47D breast, this compound came in with a TGI of more than 100 µM.

`O=c1c(-c2ccccc2)c(SCCCN2CCCCC2)n(-c2ccccc2)c(=S)n1-c1ccccc1`: the TGI turned out to be 34.4 µM in the test with ACHN renal; 35.7 µM with IGROV1 ovarian; 34.5 µM with MDA-MB-435; 47 µM with MOLT-4 leukemia; 43.8 µM in the test on NCI/ADR-RES ovarian; 32.1 µM with SF-295 CNS. The TGI in the test on SK-MEL-2 melanoma is 30.3 µM; in the test with SK-MEL-28 melanoma it was 33.2 µM.

As to `CC(C)(CCCCC(C)(C)NC1=NCCO1)NC1=NCCO1`, the TGI in the test on ACHN renal, in the test with HCT-116 colon, in the test on IGROV1 ovarian, with MDA-MB-435, in the test with MOLT-4 leukemia and in the test on NCI/ADR-RES ovarian was more than 10 µM in each case. The TGI with SF-295 CNS, in the test with SK-MEL-2 melanoma, in the test on SK-MEL-28 melanoma and in the test with T-47D breast was more than 10 µM each time.

Take `C(=C\c1cc[n+](CCc2ccccc2)cc1)/c1ccccc1`: the TGI in the test with ACHN renal is more than 100 µM; in the test on HCT-116 colon, 65.4 µM; with IGROV1 ovarian it was more than 100 µM; in the test on MDA-MB-435 it was 18.4 µM; in the test on MOLT-4 leukemia, 69.4 µM; in the test on NCI/ADR-RES ovarian, more than 100 µM. Besides, the TGI was more than 100 µM with SF-295 CNS, 55.2 µM in the test on SK-MEL-2 melanoma, 26.8 µM with SK-MEL-28 melanoma and 71.7 µM in the test on T-47D breast.

Regarding `O=c1c2ccccc2nc2n1CCc1c-2[nH]c2ccccc12`, the TGI in the test with HCT-116 colon was 31.3 µM; with IGROV1 ovarian, 60.6 µM; with MOLT-4 leukemia, more than 100 µM; in the test on NCI/ADR-RES ovarian, 61 µM; in the test with SF-295 CNS, 27 µM; with SK-MEL-28 melanoma it was 62.4 µM. Moreover, the TGI in the test with T-47D breast worked out at 55.5 µM.

For the compound `O=[N+]([O-])c1ccc(N/N=C\c2cc(Br)ccc2O)nc1`, the GI50 in the test on ACHN renal is 0.461 µM; with HCT-116 colon, 0.451 µM; in the test on IGROV1 ovarian it was 1.05 µM; in the test on MDA-MB-435, 1.39 µM; in the test with MOLT-4 leukemia, 0.347 µM; with SF-295 CNS, 1.05 µM. Further, the GI50 is 4.88 µM in the test with SK-MEL-2 melanoma, 2.05 µM in the test with SK-MEL-28 melanoma and 2.07 µM in the test on T-47D breast. The TGI in the test with ACHN renal is 2.56 µM; with HCT-116 colon, 2.44 µM; in the test with IGROV1 ovarian, 3.44 µM; in the test on MDA-MB-435, more than 100 µM; in the test on MOLT-4 leukemia it was 23.9 µM; in the test on SF-295 CNS it was 3.11 µM. The TGI in the test on SK-MEL-2 melanoma, in the test with SK-MEL-28 melanoma and in the test on T-47D breast was more than 100 µM each time.

With `COC(=O)C(C)NP(=O)(OCc1cccc(Cn2cnc3c(N)ncnc32)c1)Oc1ccccc1` (stereo unspecified), the GI50 with ACHN renal is more than 100 µM; with HCT-116 colon, 47 µM; in the test with IGROV1 ovarian, more than 100 µM; with MDA-MB-435 it was more than 100 µM; in the test on MOLT-4 leukemia, 38.3 µM; in the test on NCI/ADR-RES ovarian, more than 100 µM. The GI50 in the test with SF-295 CNS, with SK-MEL-2 melanoma and in the test on SK-MEL-28 melanoma was more than 100 µM in each case. For the same compound, the TGI with ACHN renal, in the test on HCT-116 colon, in the test on IGROV1 ovarian, in the test on MDA-MB-435, in the test with MOLT-4 leukemia and with NCI/ADR-RES ovarian was more than 100 µM in each case. In addition, the TGI with SF-295 CNS, with SK-MEL-2 melanoma and in the test with SK-MEL-28 melanoma was more than 100 µM in each case.

In the case of `NCCc1ccc(S(=O)(=O)O)cc1[N+](=O)[O-]`, the TGI in the test on ACHN renal was more than 100 µM; with HCT-116 colon, more than 100 µM; in the test with IGROV1 ovarian, more than 100 µM; with MDA-MB-435, more than 100 µM; in the test on MOLT-4 leukemia, more than 32.4 µM; with NCI/ADR-RES ovarian, more than 100 µM. Besides, the TGI with SF-295 CNS, in the test with SK-MEL-2 melanoma, in the test with SK-MEL-28 melanoma and in the test on T-47D breast was more than 100 µM in each case.

Take `COc1cc(CCN)c(OC)c(OC)c1`: the TGI is more than 100 µM in the test with ACHN renal; more than 100 µM in the test on HCT-116 colon; more than 100 µM with IGROV1 ovarian; 61.1 µM in the test with MDA-MB-435; more than 100 µM in the test on MOLT-4 leukemia; more than 100 µM in the test with NCI/ADR-RES ovarian. Moreover, the TGI in the test on SF-295 CNS, in the test with SK-MEL-2 melanoma, in the test with SK-MEL-28 melanoma and in the test with T-47D breast was more than 100 µM throughout.

For the compound `CC(C)C(=O)Cc1ccc2ccccc2n1`, the TGI in the test with ACHN renal, in the test with HCT-116 colon, in the test with IGROV1 ovarian, in the test with MDA-MB-435, in the test with NCI/ADR-RES ovarian and in the test on SF-295 CNS was more than 100 µM each time. Further, the TGI in the test with SK-MEL-2 melanoma, in the test on SK-MEL-28 melanoma and in the test on T-47D breast was more than 100 µM in each case.
